Data published in patent publication US20090149584A1, “USE OF HEXAHYDROPHTHALIMIDE COMBINATIONS AS SOFTENER” (priority 2006, published 2009).

Columns and labels:
Format in all cases: physicochemical
[1] = Solution temperature for PVC in accordance with DIN 53408
Text: A particularly important factor for the use of plasticizers is their gelling performance for PVC. Gelling performance is the capability of a plasticizer to penetrate into the polymeric structure of the PVC and to bring about a plasticizing effect by reducing the level of interaction between the polymer chains. A measure of the gelling performance of a plasticizer is the solution temperature for PVC, determined to DIN 53408. The lower the solution temperature, the better the gelling performance. Better gelling performance or lower solution temperature of the plasticizer means that lower processing temperatures can be selected in the production of flexible PVC. Lower temperatures save energy and time.
(§1) In accordance with DIN 53408, the solution temperatures of N-2-ethylhexylhexahydrophthalimide were measured for PVC. For comparison, the solution temperatures of the known plasticizers di(2-ethylhexyl) phthalate and diisobutyl phthalate were determined. Vapor pressure measurements were carried out in accordance with annex A4 to European Commission specification 92/69/ECC, OECD test specification 104 and, respectively, EPA test specification OPPTS 830.7950. The following table compares the results.

[2] = Vapor pressure measurement (annex A4 to 92/69/ECC, OECD 104, EPA OPPTS 830.7950)
Description: as §1

[3] = Boiling point

N-2-ethylhexylhexahydrophthalimide
Solution temperature for PVC [1]: 99 °C

CCCCC(CC)COC(=O)c1ccccc1C(=O)OCC(CC)CCCC (stereo not shown) [Di(2-ethylhexyl) phthalate, di(2-ethylhexyl) phthalate]
Solution temperature for PVC [1]: 124 °C | Vapor pressure ([2]; 140° C.): 0.04 hPa | Vapor pressure ([2]; 160° C.): 0.17 hPa | Vapor pressure ([2]; 180° C.): 0.58 hPa | Vapor pressure ([2]; 200° C.): 1.80 hPa | Boiling point [3]: 384 °C

CC(C)COC(=O)c1ccccc1C(=O)OCC(C)C [Diisobutyl phthalate, diisobutyl phthalate]
Solution temperature for PVC [1]: 99 °C | Vapor pressure ([2]; 140° C.): 1.50 hPa | Vapor pressure ([2]; 160° C.): 4.20 hPa | Vapor pressure ([2]; 180° C.): 10.70 hPa | Vapor pressure ([2]; 200° C.): 24.40 hPa | Boiling point [3]: 295 °C
